Test system: patient with sequelae of coronavirus pneumonia (omicron variant of coronavirus)
Conditions: human, in vivo

[HH] [hydrogen gas, hydrogen]
Daily headache and migraine that occurred several times a day: relieved
Generalized pain, difficulty breathing, feeling of faintness, malaise, fatigue after exertion, sleeping disorder, low-grade fever, bradycardia, blood pressure drop: continues to alleviate symptoms
State of pulmonary fibrosis: improving
Time after which sleeping disorder improved: about 3 days

Reference: patent US20230256007A1 (priority 2022, published 2023)
